Results from patent publication US20230218707A1, “NOVEL PEPTIDE INHIBITORS OF BETA-LACTAMASE AGAINST ANTIBIOTIC RESISTANCE” (priority 2020, published 2023).
Residues, ends and D or L forms follow the SMILES beside them.

Key:
[1] = test system: NRS384; experiment: Serial passage resistance selection of NRS384; type: cell-based, Staphylococcus aureus
[2] = test system: ATCC35218 cells; experiment: Confocal microscopy of uptake of fluorescent labeled peptide; type: cell-based, E. coli; conditions: 5(6)-FAM label at N-terminus
Description: To confirm that the CPP enhanced the E. coli uptake of the peptide, the BP100-T61-25 peptide was labeled with 5(6)-FAM [5-(and-6)-Carboxyfluorescein at the N-terminus and incubated with ATCC35218 cells. […] It is noted that significant enhancement of amoxicillin potency against resistant bacteria can be achieved by linking CPPs to peptide inhibitor.

[3] = test system: MRSA strain (JE2); experiment: Growth of MRSA strain JE2 with peptide and ceftizoxime; type: cell-based, Staphylococcus aureus; conditions: JE2, 8 μg/ml ceftizoxime (FIG. 4)
Description: Some of the MRSA strains also developed resistance against cephalosporin, which are improved β-lactams developed to overcome some of the early penicillin resistance. BP100-T61-25's synergy with Ceftizoxime, which is a third generation cephalosporin on a MRSA strain (JE2) that is resistant to cephalosporin, was tested.

[4] = test system: Escherichia coli ATCC 35218; type: cell-based; conditions: for enhancement of amoxicillin killing of ATCC35218: 32 μg/ml amoxicillin, FIG. 1 / FIG. 2A
Description: The activity of peptide inhibitors was assessed in Escherichia coli ATCC 35218 strain, which is a TEM-1 producing control E. coli strain commonly used in testing β-lactamase inhibitor activity, and which is resistant to amoxicillin by expressing TEM-1 β-lactamase. Peptide inhibitors that can inhibit TEM-1 function will lower minimum inhibitory concentration (MIC) of the amoxicillin against the resistant bacteria, which will be used to measure the potency of peptide inhibitors in bacteria. Bacterial susceptibility to amoxicillin and β-lactamase inhibitors were determined by broth microtiter dilution (BMD) according to the Clinical and Laboratory Standards Institute (CLSI) methodology. The tests were done using checkboard method with different amoxicillin concentrations (0-128 μg/ml). For the control group, clavulanic acid concentration was about 4 μg/ml.

[5] = test system: MRSA strain NRS384; experiment: Growth of MRSA strain NRS384 with peptide and amoxicillin; type: cell-based, Staphylococcus aureus
Description: In order to assess the potency of the peptides against MRSA, the peptides were tested on MRSA strain NRS384, which is widely used for studying MRSA infections.

[6] = target: T1, PBP2a (Staphylococcus aureus, UniProt P07944); experiment: In vitro binding assay, Bocillin FL binding to PBP2a (SDS-PAGE fluorescence); conditions: preliminary data, FIG. 3A
T1 construct: purchased RayBiotech, GA
T1 sequence (P07944 whole entry): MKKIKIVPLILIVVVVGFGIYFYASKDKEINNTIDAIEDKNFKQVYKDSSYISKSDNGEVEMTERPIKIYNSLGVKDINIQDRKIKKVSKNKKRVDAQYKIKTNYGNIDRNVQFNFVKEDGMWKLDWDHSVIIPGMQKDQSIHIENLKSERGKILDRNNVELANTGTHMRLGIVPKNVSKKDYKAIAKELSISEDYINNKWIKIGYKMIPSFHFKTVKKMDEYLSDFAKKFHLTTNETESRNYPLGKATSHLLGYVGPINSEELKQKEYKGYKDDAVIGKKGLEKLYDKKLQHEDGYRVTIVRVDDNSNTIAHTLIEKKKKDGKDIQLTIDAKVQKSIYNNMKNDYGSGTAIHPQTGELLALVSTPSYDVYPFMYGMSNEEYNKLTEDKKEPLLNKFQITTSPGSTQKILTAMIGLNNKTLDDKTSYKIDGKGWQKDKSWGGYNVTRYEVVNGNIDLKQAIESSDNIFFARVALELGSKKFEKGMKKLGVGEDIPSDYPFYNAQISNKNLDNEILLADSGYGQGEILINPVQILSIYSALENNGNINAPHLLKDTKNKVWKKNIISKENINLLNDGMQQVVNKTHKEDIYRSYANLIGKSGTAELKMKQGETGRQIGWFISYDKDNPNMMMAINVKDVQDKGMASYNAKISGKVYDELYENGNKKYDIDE
Description: More peptides were designed to target both PBP2a and β-lactamase which are predicted to enhance amoxicillin killing of MRSA. […] The top 6 best-scored peptides were synthesized. […] In the absence of peptide competitors, Bocillin FL bound to PBP2a and then gave rise to fluorescence signal when the protein was resolved on an SDS-PAGE gel.

[7] = target: TEM-1 (Escherichia coli, UniProt P62593); conditions: literature peptide, Huang et al. 2003; cited from earlier work
Chain of TEM-1 (P62593 24-286 limits assumed): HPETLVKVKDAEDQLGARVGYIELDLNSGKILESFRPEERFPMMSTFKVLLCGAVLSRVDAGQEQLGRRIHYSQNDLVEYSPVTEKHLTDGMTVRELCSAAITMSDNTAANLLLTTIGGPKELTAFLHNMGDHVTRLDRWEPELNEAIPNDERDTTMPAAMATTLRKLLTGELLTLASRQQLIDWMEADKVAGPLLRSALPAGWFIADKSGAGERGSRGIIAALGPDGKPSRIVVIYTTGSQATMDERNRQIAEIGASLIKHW

CC[C@H](C)[C@H](NC(=O)[C@H](CCCCN)NC(=O)[C@H](CCCCN)NC(=O)[C@H](Cc1ccccc1)NC(=O)[C@H](CC(C)C)NC(=O)[C@H](CCCCN)NC(=O)[C@@H](N)CCCCN)C(=O)N[C@@H](CC(C)C)C(=O)N[C@@H](CCCCN)C(=O)N[C@@H](Cc1ccc(O)cc1)C(=O)N[C@@H](CC(C)C)C(=O)N[C@@H](CCCCN)C(=O)N[C@H](C(=O)N[C@@H](Cc1ccc(O)cc1)C(=O)N[C@@H](CC(C)C)C(=O)N[C@@H](C)C(=O)N[C@@H](CCC(N)=O)C(=O)N[C@@H](C)C(=O)N[C@@H](C)C(=O)N[C@@H](C)C(=O)N[C@H](C(=O)NCC(=O)O)[C@@H](C)O)[C@@H](C)O [BP100-T61-25] (H-KKLFKKILKYLKTYLAQAAATG-OH; N-terminus and C-terminus assumed)
peptide concentration sufficient to inhibit bacterial growth after serial passage ([1]; NRS384 passages 12-15, with 32 μg/ml amoxicillin): 16 µg/mL | peptide internalization into E. coli cells [2]: peptide internalization into E. coli cells was observed | peptide concentration significantly enhancing ceftizoxime's killing of JE2 [3]: 8 µg/mL | enhancement of amoxicillin killing of ATCC35218 [4]: Marked enhancement of amoxicillin (32 μg/ml) killing of bacteria | peptide dose close to the MIC ([4]; ATCC 35218): ~8 µg/mL | peptide concentration with strong inhibition of bacterial growth ([4]; ATCC35218, with 32 μg/ml amoxicillin): 8 to 16 µg/mL | peptide concentration significantly inhibiting bacterial growth ([4]; ATCC35218, without amoxicillin): 16 µg/mL | peptide concentration enhancing amoxicillin killing of MRSA ([5]; NRS384, amoxicillin 32 μg/ml, FIG. 3C): 16 µg/mL

CC(C)C[C@H](NC(=O)[C@H](Cc1ccc(O)cc1)NC(=O)[C@@H](NC(=O)[C@@H](N)CCCCN)[C@@H](C)O)C(=O)N[C@@H](C)C(=O)N[C@@H](CCC(N)=O)C(=O)N[C@@H](C)C(=O)N[C@@H](C)C(=O)N[C@@H](C)C(=O)N[C@H](C(=O)NCC(=O)O)[C@@H](C)O [Peptide T61-25]
inhibition of Bocillin FL binding to PBP2a [6]: inhibitory effect

CC(C)C[C@H](NC(=O)[C@H](C)NC(=O)[C@H](CCCNC(=N)N)NC(=O)[C@@H](NC(=O)[C@@H](NC(=O)[C@H](Cc1ccccc1)NC(=O)[C@@H](NC(=O)[C@@H](N)CCCCN)[C@@H](C)O)C(C)C)C(C)C)C(=O)N[C@@H](C)C(=O)N[C@@H](CO)C(=O)O [Peptide T63-07]
inhibition of Bocillin FL binding to PBP2a [6]: inhibitory effect

C[C@H](NC(=O)[C@H](Cc1ccccc1)NC(=O)[C@H](CC(=O)O)NC(=O)CNC(=O)[C@H](CO)NC(=O)CNC(=O)CN)C(=O)N[C@@H](CCCNC(=N)N)C(=O)N[C@@H](CO)C(=O)N[C@@H](CO)C(=O)N[C@@H](Cc1ccc(O)cc1)C(=O)O [Peptide T66-12]
inhibition of Bocillin FL binding to PBP2a [6]: inhibitory effect

CC1(C)S[C@@H]2[C@H](NC(=O)[C@H](N)c3ccc(O)cc3)C(=O)N2[C@H]1C(=O)O [amoxicillin, reference compound]
MIC ([5]; Staphylococcus aureus): > 256 µg/mL

O=C(O)c1cn(C2CC2)c2cc(N3CCNCC3)c(F)cc2c1=O [ciprofloxacin, reference compound]
MIC ([1]; Staphylococcus aureus, NRS384, read-out: bacterial MIC to ciprofloxacin after serial passage): > 256 µg/mL

CFFKDELKTYLAQAAATG [Peptide T63-2, cell wall-permeating peptide attached to peptide T61-25]
enhancement of amoxicillin killing of ATCC35218 [4]: moderate effect at enhancing amoxicillin potency

KFFKFFKFFKKTYLAQAAATG [Peptide T63-1, cell wall-permeating peptide attached to peptide T61-25]
enhancement of amoxicillin killing of ATCC35218 [4]: Significant enhancement of amoxicillin killing of bacteria | enhancement of amoxicillin potency compared with clavulanate ([4]; ATCC35218, FIG. 1): enhanced amoxicillin potency significantly more than clavulanate

KTFVVRALASCKFFKFFKFF [Peptide T63-07-CPP, T63-07 conjugated with CPP]
peptide concentration significantly enhancing amoxicillin inhibition of MRSA growth ([5]; NRS384, amoxicillin 32 and 64 μg/ml, FIG. 3B): 32 µg/mL

RRGHYY-NH2
Ki [7]: 136 µM
